Results taken from PMC6978316, “Development of chimeric peptides to facilitate the neutralisation of lipopolysaccharides during bactericidal targeting of multidrug-resistant Escherichia coli” (Communications Biology, 2020).
Read-outs that look alike come from different tables or passages of the source. Where a SMILES comes first, the peptide text is derived from it. Bridges are numbered along the chain shown (N, C = ends). Where no end group is shown, it is not given here.

Experiments:
E. coli LPS = assay: BODIPY-TR-cadaverine (BC) displacement assay; assay type: binding, Escherichia coli; parameters: BC displacement from LPS, Mean: unit not given here; settings: for BC displacement from LPS, Mean: mean of n = 3
Method: The affinity of SCPs (A6, G6, and N6) to E. coli LPS was detected by the fluorescent BC probe. The binding of fluorescent probe with LPS can cause fluorescence quenching. When peptides bind to LPS, BC probe can be replaced, which can result in an increase in fluorescence. Equal volumes of LPS (40 μg per ml) and BC probe (10 μM) in 50 mM Tris buffer (pH 7.4) were mixed and added into a black 96-well microtiter plate (180 μl mixture per well), followed by the addition of different concentrations of A6, G6, or N6 (20 μl per well). Ampicillin and PMB were used as the negative and positive control, respectively. Changes in fluorescence were measured by a fluorescence spectrophotometry at room temperature (excitation: 580 nm, emission: 620 nm) and the BC displacement rate was calculated.

E. coli CVCC195 = assay type: cell-based, Escherichia coli; settings: for Fold change in MIC: E. coli CVCC195
Method: Bacterial resistance against the peptides was assessed via the MIC assays. […] After 16–18 h of incubation at 37 °C, cells from the second highest concentration showing visible growth were used to inoculate the subsequent cultures. The MIC values for drug passage cultures were obtained as described above. This process was repeated for 30 d.

tested bacterial strains = assay: MIC, range over all tested strains (peer review file); assay type: cell-based; settings: manuscript lines quoted in the peer review file
Method: The MIC values of A6, G6, the parental peptides (N6 and LBP14), LBPN6, scramble controls (N6CK, A6CK, and G6CK), and PMB were determined by the microtiter broth dilution method. The tested strains included Gram-negative bacteria, Gram-positive bacteria, and fungi and were cultured to the logarithmic growth phase, diluted to 10^5 CFU per ml, and added into 96-well plates (90 μl per well). Peptides or antibiotic were diluted with PBS by 2-fold dilution and were added to each well (10 μl per well). Polymyxin B (PMB) and PBS were used as the positive and negative control, respectively. […] All experiments were repeated three times.

pepsin = assay type: in vitro ADME
in vitro = settings: mouse, serum, peptide remaining in serum, Mean, mice serum, 37 °C, RP-HPLC, mean of n = 3 (source data Fig. 2f)
Method: The thermal, pH and enzyme stability of A6 and G6 were evaluated against MDR E. coli CVCC195 using a previous method with minor revisions. The N6, A6, and G6 solutions were treated at different temperatures (20–100 °C) for 1 h, dissolved and incubated at different pH values (2–10) for 3 h, or incubated with trypsin or pepsin for 4 h. The inhibition zone diameters were measured after incubation at 37 °C for 18–24 h. The peptides were dissolved in H2O or mice serum at 37 °C to detect their serum stability and samples were removed at different time points to determine their residual activity by the inhibition zone or reverse-phase high-performance liquid chromatography (RP-HPLC) methods[62],[63].

trypsin = assay type: in vitro ADME
[1] = Biodistribution of FITC-labeled peptides (in vivo fluorescence imaging); settings: nude mice, FITC-labeled peptide 5 mg per kg intraperitoneally
Method: The nude mice were intraperitoneally injected with 5 mg per kg FITC-labeled A6, G6, and N6, respectively. Free FITC was used as a negative control.

In the case of `CC1(C)S[C@@H]2[C@H](NC(=O)[C@H](N)c3ccccc3)C(=O)N2[C@H]1C(=O)O` [AMP, Ampicillin], the “BC displacement from LPS, Mean” value (E. coli LPS; 0.05 μM, LPS 40 μg per ml + BC 10 μM, 50 mM Tris pH 7.4, ex 580/em 620 nm) is reported as -0.1364, the “BC displacement from LPS, Mean” value (E. coli LPS; 0.1 μM) is reported as -0.2089 and the “BC displacement from LPS, Mean” value (E. coli LPS; 0.5 μM) is reported as -1.734. The “BC displacement from LPS, Mean” value (E. coli LPS; 1 μM) was -1.14, the “BC displacement from LPS, Mean” value (E. coli LPS; 5 μM) was -3.263 and the “BC displacement from LPS, Mean” value (E. coli LPS; 10 μM) was -3.845. For the same compound, the “BC displacement from LPS, Mean” value (E. coli LPS; 50 μM) was -4.033, the BC displacement ratio (E. coli LPS; 100 μM) was “did not displace BC probe” and the “BC displacement from LPS, Mean” value (E. coli LPS; 100 μM) was -4.227.

For `CNC(C)C1CCC(N)C(OC2C(N)CC(N)C(OC3OCC(C)(O)C(NC)C3O)C2O)O1` (centres unmarked) [Gentamicin, gentamicin], the “Fold change in MIC” value (E. coli CVCC195; Day 1 of serial passage) was 1 fold, the “Fold change in MIC” value (E. coli CVCC195; Day 2 of serial passage) was 2 fold and the “Fold change in MIC” value (E. coli CVCC195; Day 3 of serial passage) was 2 fold. The “Fold change in MIC” value (E. coli CVCC195; Day 4 of serial passage) was 1 fold, the “Fold change in MIC” value (E. coli CVCC195; Day 5 of serial passage) was 2 fold and the “Fold change in MIC” value (E. coli CVCC195; Day 6 of serial passage) was 2 fold. The “Fold change in MIC” value (E. coli CVCC195; Day 7 of serial passage) was 4 fold, the “Fold change in MIC” value (E. coli CVCC195; Day 8 of serial passage) was 4 fold and the “Fold change in MIC” value (E. coli CVCC195; Day 9 of serial passage) was 4 fold. The “Fold change in MIC” value (E. coli CVCC195; Day 10 of serial passage) was 8 fold, the “Fold change in MIC” value (E. coli CVCC195; Day 11 of serial passage) was 8 fold and the “Fold change in MIC” value (E. coli CVCC195; Day 12 of serial passage) was 8 fold. For the same compound, the “Fold change in MIC” value (E. coli CVCC195; Day 13 of serial passage) was 8 fold, the “Fold change in MIC” value (E. coli CVCC195; Day 14 of serial passage) was 16 fold and the “Fold change in MIC” value (E. coli CVCC195; Day 15 of serial passage) was 16 fold. For the same compound, the “Fold change in MIC” value (E. coli CVCC195; Day 16 of serial passage) was 16 fold, the “Fold change in MIC” value (E. coli CVCC195; Day 17 of serial passage) was 16 fold and the “Fold change in MIC” value (E. coli CVCC195; Day 18 of serial passage) was 16 fold. For the same compound, the “Fold change in MIC” value (E. coli CVCC195; Day 19 of serial passage) was 16 fold, the “Fold change in MIC” value (E. coli CVCC195; Day 20 of serial passage) was 16 fold and the “Fold change in MIC” value (E. coli CVCC195; Day 21 of serial passage) was 16 fold. The “Fold change in MIC” value (E. coli CVCC195; Day 22 of serial passage) was 16 fold, the “Fold change in MIC” value (E. coli CVCC195; Day 23 of serial passage) was 16 fold and the “Fold change in MIC” value (E. coli CVCC195; Day 24 of serial passage) was 16 fold. The “Fold change in MIC” value (E. coli CVCC195; Day 25 of serial passage) was 16 fold, the “Fold change in MIC” value (E. coli CVCC195; Day 26 of serial passage) was 16 fold and the “Fold change in MIC” value (E. coli CVCC195; Day 27 of serial passage) was 16 fold. The “Fold change in MIC” value (E. coli CVCC195; Day 28 of serial passage) was 16 fold, the “Fold change in MIC” value (E. coli CVCC195; Day 29 of serial passage) was 16 fold and the “Fold change in MIC” value (E. coli CVCC195; Day 30 of serial passage) was 16 fold. For the same compound, the MIC elevation (E. coli CVCC195; at 7 d of serial passage) was 3 fold and the MIC elevation (E. coli CVCC195; at 15 d of serial passage) was 15 fold.

In the case of `CC(C)[C@H](N)C(=O)N[C@H]1CSSC[C@@H](C(=O)N[C@@H](Cc2c[nH]cn2)C(=O)N[C@@H](CCCNC(=N)N)C(=O)N[C@@H](CCCNC(=N)N)C(=O)N[C@@H](C)C(=O)N[C@@H](CC(N)=O)C(=O)N[C@@H](CC(N)=O)C(=O)NCC(=O)N[C@H](C(=O)N[C@@H](CCCNC(=N)N)C(=O)N[C@H](C(=O)O)C(C)C)C(C)C)NC(=O)[C@H](CC(N)=O)NC(=O)[C@H](Cc2c[nH]c3ccccc23)NC(=O)[C@H](C)NC(=O)[C@H](Cc2ccccc2)NC(=O)CNC(=O)[C@H](CCCNC(=N)N)NC(=O)[C@H](Cc2ccc(O)cc2)NC(=O)[C@H](C(C)C)NC1=O` [N6CK] (H-VCVYRGFAWNCHRRANNGVRV-OH; disulfide 2-11; N-terminus and C-terminus assumed), the “MICs against the tested bacterial strains (range)” value (tested bacterial strains) is reported as “hardly any activity”.

In the case of `CC(C)[C@@H]1NC(=O)CNC(=O)[C@H](CC(N)=O)NC(=O)[C@H](CCCNC(=N)N)NC(=O)[C@H](Cc2ccc(O)cc2)NC(=O)[C@H](C(C)C)NC(=O)[C@@H](NC(=O)[C@@H](NC(=O)[C@H](CC(N)=O)NC(=O)[C@H](Cc2c[nH]c3ccccc23)NC(=O)[C@H](C)NC(=O)[C@H](Cc2ccccc2)NC(=O)CN)C(C)C)CSSC[C@@H](C(=O)N[C@@H](Cc2cnc[nH]2)C(=O)N[C@@H](CCCNC(=N)N)C(=O)N[C@@H](CCCNC(=N)N)C(=O)N[C@@H](C)C(=O)N[C@@H](CC(N)=O)C(=O)O)NC(=O)[C@H](C(C)C)NC(=O)[C@H](CCCNC(=N)N)NC1=O` [N6] (H-GFAWNVCVYRNGVRVCHRRAN-OH; disulfide 7-16), the “antibacterial activity after pepsin (inhibition zone diameter), Mean” value (pepsin) is reported as 1.866, the “antibacterial activity without enzyme (inhibition zone diameter), Mean” value (pepsin) is reported as 2.004 and the remaining at 1 h (in vitro; 1 h) is reported as 93%. For the same compound, the remaining at 2 h (in vitro; 2 h) was 87.5%, the remaining at 4 h (in vitro; 4 h) was 77.3% and the “antibacterial activity after trypsin (inhibition zone diameter), Mean” value (trypsin) was 0. For the same compound, the “time after injection at which the fluorescence disappeared / peptide was excreted” value [1] was 72 h.

For “RVQGRWKVRASFFKEAAAKEAAAKVCVYRGFAWNCHRRANNGVRV (disulfide 26-35) [A6CK]”, the “MICs against the tested bacterial strains (range)” value (tested bacterial strains) was “hardly any activity”.
